According to patent US20250228848A1, “PROCESS FOR MAKING A KRAS G12C INHIBITOR” (ELI LILLY AND COMPANY, priority 2022, published 2025):
Read-outs that look alike come from different tables or passages of the source.

Key:
KRas G12C = KRas G12C (Homo sapiens, UniProt P01116, G12C); experiment: KRas G12C Probe Occupancy TR-FRET Assay; format: binding; settings: for IC50 concentrations relative to Examples 1, 3, 5, and 7 (the P atropisomer designations): comparison of M with P atropisomers, Table 3
KRas G12C, sequence (P01116 1-188 isoform P01116-2 G12C): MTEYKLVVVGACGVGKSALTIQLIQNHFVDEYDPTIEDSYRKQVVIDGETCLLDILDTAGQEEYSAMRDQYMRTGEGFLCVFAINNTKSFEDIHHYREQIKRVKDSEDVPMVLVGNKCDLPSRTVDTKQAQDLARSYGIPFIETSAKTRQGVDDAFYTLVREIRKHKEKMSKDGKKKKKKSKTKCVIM
From the text: The purpose of this assay is to measure the ability of an inhibitor to compete with a probe for binding to and covalently modifying KRas G12C at codon 12. The signal is generated by the time-resolved transfer of fluorescence between europium on an antibody bound to KRas G12C Europium-labeled Anti-Histidine Tag Antibody LanthaScreen (the Eu Anti-His antibody) and fluorescent Tracer 647 (Alexa Fluor™) bound to KRas G12C through streptavidin and a biotinylated inhibitor (the “KRas Probe”, see Preparation 223).
Inhibitors are tested in dose response format from 10 mM stocks in 100% DMSO. The Labycyte Echo® 555 is used to dilute and transfer 100 nL per well containing a 10 point, 2.8-fold serial dilution to an assay plate. Two copies of the assay plate are prepared to measure the potency after 5 and 60 minutes incubation of the inhibitor with KRas G12C. His-tagged KRas G12C (20 nM) is added to the plates in assay buffer (20 mM Tris-HCl, pH 7.5, 0.01% TX-100, and 1 mM DTT). After 5 or 60 minutes incubation, 1 μM KRas Probe is added and allowed to covalently modify free KRas G12C for 1 hour. This is diluted 4-fold in buffer containing Eu Anti-His antibody and Streptavidin-Coated Tracer 647 (both from Life Technologies) to achieve KRas G12C (5 nM), Anti-His Antibody (2 nM), KRas Probe ([…]), and Streptavidin Coated Tracer 647 (500 nM). After 30 minutes, the fluorescent signal is read on an Envision™ Plate Reader (excitation at 340 nm, tracer emission (em) at […], and antibody emission at 615 nm). Maximum control wells lack inhibitor and minimum control wells lack both inhibitor and KRas G12C. The signal ratio (em at 665/em at 615) is converted to percent inhibition using the following equation: % Inhibition=100−[(Test Compound Signal−Median Minimum Signal)/(Median Maximum Signal−Median Minimum Signal)×100]. The IC50 is determined by fitting the percent inhibition at each inhibitor concentration to the four parameter nonlinear logistic equation using Genedata Screener®: y=(A+((B−A)/(1+((C/x)∧D)))) where, y=% inhibition, A=minimum asymptote, B=maximum asymptote, C=relative IC50 or the inhibitor concentration producing 50% inhibition within the fitted range of both asymptotes, and D=Hill Slope. Compounds within the scope of this disclosure are evaluated in this assay substantially as described above.

[1] = test system: phosphorylation of p-ERK1/2 in human lung cancer cells H358; experiment: H358 Cellular Phospho-ERK AlphaLISA; format: cell-based; settings: incubated for 2 hours with compound, p-ERK 1/2 (Thr202/Tyr204)
Procedure: Briefly, the AlphaLISA® SureFire® Ultra™ p-ERK 1/2 (Thr202/Tyr204) assay is a sandwich immunoassay for quantitative detection of phospho-ERK 1/2 (phosphorylated on Thr202/Tyr204 in ERK1, or Thr185/Tyr187 in ERK2) in cellular lysates using Alpha Technology (Perkin Elmer Cat #ALSU-PERK-A50K).
The next morning, 10 μL of serially-diluted (3-fold) test compounds (50 μM top concentration) and 10 μL of controls (Maximum signal wells: 5% DMSO and Minimum signal wells: 2 μM of N-(3-{3-cyclopropyl-5-[(2-fluoro-4-iodophenyl)amino]-6,8-dimethyl-2,4,7-trioxo-3,4,6,7-tetrahydropyrido[4,3-D]pyrimidin-1(2H)-yl}phenyl)acetamide (trametinib, as a positive control) are added to the cell plate and incubated for 2 hours in humid trays at 37° C./5% CO2. Lysis Buffer is prepared at ambient temperature containing a protease and phosphatase inhibitor cocktail. Culture medium is removed by inverting and shaking the cell plate in the sink and then blotting onto a paper towel. Lysis buffer is added to the cell plate (50 μL per well) and the plate is incubated at ambient temperature for 10 minutes on a shaker. For p-ERK detection, acceptor beads are diluted into a suspension mixture with buffer. Using a STARlet liquid handler, 5 μL of acceptor beads and 2 μL of cell lysate are transferred as a single-step in-tip dilution to a 384 well assay plate. The assay plate is sealed with foil and is incubated at ambient temperature for 2 hours. Donor beads are diluted into a suspension mixture with buffer. Using the STARlet, 5 μL of donor beads are added to the assay plate that is then sealed, wrapped with foil. The plate is incubated at ambient temperature for 2 hours in the dark. The assay plate is then read on an EnVision™ Plate Reader (Perkin Elmer) using a luminescence program.
The signal is converted to percent inhibition using the following equation: % Inhibition=100−[(Test Compound Signal−Median Minimum Signal)/(Median Maximum Signal−Median Min Signal)×100]. The Maximum signal is a control well without inhibitor.
(§1) Compounds within the scope of this disclosure are evaluated in this assay substantially as described above.

[2] = test system: constitutive RAS GTPase activity in human lung cancer cells H358; experiment: H358 Cellular Active RAS GTPase ELISA; format: cell-based; settings: serum free media, incubated for 2 hours with compound
Procedure: Activated RAS (GTP-bound) in cell extracts specifically bind to the Raf-RBD. Bound RAS is detected with a primary antibody that recognizes human KRas. A secondary antibody conjugated with HRP recognizes the primary antibody and a development solution provides a chemiluminescent readout.
The next morning, 10 μL of serially-diluted (3-fold) test compounds (500 μM top concentration) and 10 μL of controls (Maximum signal wells: 5% DMSO and Minimum signal wells: 500 μM 1-[4-[6-chloro-8-fluoro-7-(3-hydroxy-1-naphthyl)quinazolin-4-yl]piperazin-1-yl]prop-2-en-1-one, WO2015054572 as an inhibitor) are added to the cell plate and incubated for 2 hours at 37° C./5% CO2. Complete Lysis/Binding Buffer is prepared containing Protease Inhibitor cocktail and GST-Raf-RBD and stored on ice. One hour before cell plate incubation is completed, 50 μL of GST-Raf-RBD is diluted in lysis/binding buffer, and buffer is added to the ELISA assay plate and which is incubated for 1 hour at 4° C. with gently rocking. After 2 hours, the cells are washed with 100 μL ice-cold PBS and lysed with 100 μL lysis/binding buffer. The cell plate is shaken for 10 minutes at ambient temperature. The cell plate is then centrifuged at 1500 rpm for 10 minutes at ambient temperature. During this time, 1×Wash Buffer is prepared at ambient temperature and then is used to wash (3×100 μL) the GST-Raf-RBD coated assay plate. After washing, 50 μL of cell lysate is added to the GST-Raf-RBD coated assay plate and incubated for 1 hour at ambient temperature with gentle shaking. During this incubation period, 1×Antibody Binding Buffer is prepared and brought to ambient temperature. The assay plate is washed 3×100 μL with 1×Wash Buffer and then 50 μL of Primary Antibody (diluted 1:500 in 1×Antibody Binding buffer) is added. The plate is incubated for 1 hour at ambient temperature. The assay plate is washed 3×100 μL with 1×Wash Buffer and then 50 μL of Secondary Antibody (diluted 1:5000 in 1×Antibody Binding buffer) is added and incubated for 1 hour at ambient temperature. The assay plate is washed 4×100 μL with 1×Wash buffer and then 50 μL of chemiluminescent working solution is added at ambient temperature. The assay plate is then read on an EnVision™ Plate Reader (Perkin Elmer) using a luminescence program.
The signal is converted to percent inhibition using the following equation: % Inhibition=100−[(Test Compound Signal−Median Minimum Signal)/(Median Maximum Signal−Median Minimum Signal)×100]. The Maximum signal is a control well without inhibitor.
as §1

[3] = 5 minutes incubation of the inhibitor with His-tagged KRas G12C before KRas Probe, read-out: IC50 (nM) @ 5 min
[4] = 60 minutes incubation of the inhibitor with His-tagged KRas G12C before KRas Probe, read-out: IC50 (nM) @ 60 min

SMILES	IC50 (KRas G12C; [3]) [nM]	IC50 (KRas G12C; [4]) [nM]	IC50 concentrations relative to Examples 1, 3, 5, and 7 (the P atropisomer designations) (KRas G12C)	IC50 [1] [nM]	IC50 ([2]; read-out: IC50) [nM]	IC50 [2] [nM]
C=CC(=O)N1CCN2C(=O)c3cc(F)c(-c4ccc(F)c5sc(N)c(C#N)c45)c(Cl)c3OCC[C@H]2C1 (single isomer, unassigned) [Example 6]	< 15	< 15	superior IC50 concentrations	0.649	–	3.31
C=CC(=O)N1CCN2C(=O)c3cc(F)c(-c4ccc(F)c5sc(N)c(C#N)c45)c(Cl)c3OCC[C@H]2C1 (single isomer, unassigned) [Example 5]	3270	3250	–	330	–	1770
C=CC(=O)N1CCN2C(=O)c3cc(F)c(-c4cccc5sc(N)c(C#N)c45)c(Cl)c3OCC[C@H]2C1 (single isomer, unassigned) [Example 3]	451	843	–	206	902	–
C=CC(=O)N1CCN2C(=O)c3cc(Cl)c(-c4ccc(F)c5sc(N)nc45)c(Cl)c3OCC[C@H]2C1 (single isomer, unassigned) [Example 1]	18600	16000	–	2460	14400	–
C=CC(=O)N1CCN2C(=O)c3cc(Cl)c(-c4ccc(F)c5sc(N)nc45)c(Cl)c3OCC[C@H]2C1 (single isomer, unassigned) [Example 2]	< 15	< 15	superior IC50 concentrations	–	6.71	–

Further lines, with some results ahead:

IC50 (KRas G12C; [3]) [nM]	IC50 (KRas G12C; [4]) [nM]	IC50 concentrations relative to Examples 1, 3, 5, and 7 (the P atropisomer designations) (KRas G12C)	IC50 [1] [nM]	IC50 ([2]; read-out: IC50) [nM]	SMILES	IC50 [2] [nM]
< 15	< 15	superior IC50 concentrations	0.902	4.62	C=CC(=O)N1CCN2C(=O)c3cc(F)c(-c4ccc(F)c5sc(N)c(C#N)c45)c(Cl)c3OC[C@H]2C1 (single isomer, unassigned) [Example 8]	–
26900	17900	–	2980	23800	C=CC(=O)N1CCN2C(=O)c3cc(F)c(-c4ccc(F)c5sc(N)c(C#N)c45)c(Cl)c3OC[C@H]2C1 (single isomer, unassigned) [Example 7]	–
< 15	< 15	superior IC50 concentrations	1.31	5.66	C=CC(=O)N1CCN2C(=O)c3cc(F)c(-c4cccc5sc(N)c(C#N)c45)c(Cl)c3OCC[C@H]2C1 (single isomer, unassigned) [Example 4]	–
